# Source: patent publication US20250074939A1, “SEA URCHIN-DERIVED PEPTIDE AND USE THEREOF” (NATIONAL MARINE BIODIVERSITY INSTITUTE OF KOREA, priority 2021, published 2025)
# pEC50, pIC50: −log10 of the molar value. Where a SMILES comes first, the peptide text is derived from it. Bridges are numbered along the chain shown (N, C = ends).
# Experiments:
# [1] = target: T1, recombinant human vasopressin V1B receptor (Homo sapiens, UniProt P47901)
# [2] = system: tube foot and esophageal tissues isolated from Echinus esculentus; details: cited from earlier work
# [3] = target: T1, recombinant human vasopressin V1B receptor; assay: cell-based
# [4] = target: T2, recombinant human vasopressin V2 receptor (Homo sapiens, UniProt P30518); assay: cell-based
# [5] = target: T3, recombinant human vasopressin V1A receptor (Homo sapiens, UniProt P37288); assay: cell-based
# [6] = target: T4, recombinant human oxytocin receptor (Homo sapiens, UniProt P30559); assay: cell-based
# [7] = target: T4, recombinant human oxytocin receptor; assay: cell-based or functional assay
# [8] = target: T3, recombinant human vasopressin V1A receptor; assay: cell-based or functional assay
# [9] = target: T5, recombinant human vasopressin V1B receptor (human) (UniProt P47901); assay: cell-based or functional assay
# T5 sequence (looked up): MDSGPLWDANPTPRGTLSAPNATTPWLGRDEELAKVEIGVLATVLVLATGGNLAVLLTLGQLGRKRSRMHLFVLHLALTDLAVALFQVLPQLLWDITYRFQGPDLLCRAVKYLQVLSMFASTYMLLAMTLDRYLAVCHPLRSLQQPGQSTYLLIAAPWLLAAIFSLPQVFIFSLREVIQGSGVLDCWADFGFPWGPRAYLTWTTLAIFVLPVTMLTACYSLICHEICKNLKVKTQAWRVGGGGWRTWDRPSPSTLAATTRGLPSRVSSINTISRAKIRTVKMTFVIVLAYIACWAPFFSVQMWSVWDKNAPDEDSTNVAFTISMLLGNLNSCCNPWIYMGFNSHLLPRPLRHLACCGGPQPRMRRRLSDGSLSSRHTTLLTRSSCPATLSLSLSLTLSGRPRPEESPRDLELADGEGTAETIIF
# [10] = target: T2, recombinant human vasopressin V2 receptor; assay: cell-based or functional assay
# T3 sequence (P37288 whole entry): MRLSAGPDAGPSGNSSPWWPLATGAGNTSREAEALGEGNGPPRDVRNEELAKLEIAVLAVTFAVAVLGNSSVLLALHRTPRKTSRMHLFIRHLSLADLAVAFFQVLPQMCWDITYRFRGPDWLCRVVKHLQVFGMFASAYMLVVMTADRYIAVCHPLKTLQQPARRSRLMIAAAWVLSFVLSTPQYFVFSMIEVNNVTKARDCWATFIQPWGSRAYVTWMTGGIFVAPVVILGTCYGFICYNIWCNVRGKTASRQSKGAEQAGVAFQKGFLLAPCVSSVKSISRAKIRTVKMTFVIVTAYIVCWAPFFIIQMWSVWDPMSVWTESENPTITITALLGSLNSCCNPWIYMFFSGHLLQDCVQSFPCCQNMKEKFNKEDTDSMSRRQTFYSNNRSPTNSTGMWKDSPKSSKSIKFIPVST
# T4 sequence (P30559 whole entry): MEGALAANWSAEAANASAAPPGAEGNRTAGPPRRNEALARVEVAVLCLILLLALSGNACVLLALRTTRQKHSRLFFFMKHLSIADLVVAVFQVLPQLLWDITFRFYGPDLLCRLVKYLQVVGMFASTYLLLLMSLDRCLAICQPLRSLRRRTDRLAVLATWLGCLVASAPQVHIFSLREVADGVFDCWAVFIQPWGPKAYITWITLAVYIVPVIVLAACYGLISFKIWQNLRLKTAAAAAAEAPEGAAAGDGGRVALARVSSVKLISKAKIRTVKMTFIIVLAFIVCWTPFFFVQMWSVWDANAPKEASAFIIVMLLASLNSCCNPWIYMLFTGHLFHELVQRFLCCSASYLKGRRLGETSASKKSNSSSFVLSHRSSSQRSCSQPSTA
compound,measurement,setting,value
CC[C@H](C)[C@@H]1NC(=O)[C@H](Cc2ccccc2)NC(=O)[C@@H](N)CSSC[C@@H](C(=O)N2CCC[C@H]2C(=O)N[C@@H](CCCCN)C(=O)NCC(N)=O)NC(=O)[C@H](CC(N)=O)NC(=O)[C@H](CO)NC1=O [Echinotocin] (H-CFISNCPKG-NH2; disulfide 1-6; N-terminus assumed),receptor selectivity at appropriate concentration,[1],selectively activates only the V1B receptor and has little effect on other receptors
same,contraction of isolated tube foot and esophageal tissues,[2],effective in contracting tube foot and esophageal tissues
same,pEC50,[3],7.31
same,pEC50,[4],8.43
same,pIC50,[5],6.00
same,pIC50,[6],5.77
"Echinotocin (Strongylocentrotus purpuratus-derived peptide, SEQ ID NO: 1)",receptor inhibition: intracellular calcium response to 30 nM oxytocin (calcium dye fluorescence imaging),[7],1.7 UM
same,receptor inhibition: intracellular calcium response to 10 nM vasopressin (calcium dye fluorescence imaging),[8],1 µM
same,"receptor activation: increase of intracellular calcium concentration (calcium dye fluorescence imaging), relative to 0.1 µM vasopressin",[9],49.1 nM
same,"receptor activation: intracellular cAMP accumulation (HTRF), relative to 1 nM vasopressin",[10],3.68 nM
